SMILES strings stand for the structures.

T1 sequence (Q8NER1 whole entry): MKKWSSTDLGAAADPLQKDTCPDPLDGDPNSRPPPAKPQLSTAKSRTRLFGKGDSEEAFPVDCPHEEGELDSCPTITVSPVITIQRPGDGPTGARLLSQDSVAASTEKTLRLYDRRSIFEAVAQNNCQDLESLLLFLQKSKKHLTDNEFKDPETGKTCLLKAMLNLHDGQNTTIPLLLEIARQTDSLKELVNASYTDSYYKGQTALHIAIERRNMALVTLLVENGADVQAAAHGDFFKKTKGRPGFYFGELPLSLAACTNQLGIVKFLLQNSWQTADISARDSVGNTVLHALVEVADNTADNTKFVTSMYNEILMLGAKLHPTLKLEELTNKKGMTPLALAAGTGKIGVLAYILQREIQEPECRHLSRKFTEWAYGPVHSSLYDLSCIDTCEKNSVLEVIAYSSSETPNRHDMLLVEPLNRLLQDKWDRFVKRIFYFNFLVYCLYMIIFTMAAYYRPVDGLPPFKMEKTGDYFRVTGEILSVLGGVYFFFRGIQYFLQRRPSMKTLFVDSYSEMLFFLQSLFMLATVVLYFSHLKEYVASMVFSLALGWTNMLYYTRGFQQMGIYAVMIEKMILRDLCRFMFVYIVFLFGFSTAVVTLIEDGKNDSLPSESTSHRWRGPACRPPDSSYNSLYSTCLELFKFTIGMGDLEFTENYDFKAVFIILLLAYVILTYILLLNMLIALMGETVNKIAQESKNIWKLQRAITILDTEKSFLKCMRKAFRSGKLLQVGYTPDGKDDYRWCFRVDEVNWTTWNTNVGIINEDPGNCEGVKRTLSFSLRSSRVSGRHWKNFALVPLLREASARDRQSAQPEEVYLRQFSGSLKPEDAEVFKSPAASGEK

The first test has as its target T1, hVR1 (Homo sapiens (Human), UniProt Q8NER1). Put plainly: FLIPR assay hVR1, after pH stimulus. The format is cell-based. Also noted: key to IC50 (human being) hVR1 pH: result in words (NE / AG): AG=agonist; pAG=partial agonist; NE=no effect.
Conditions: not given
The method, then:
In this assay, the influx of Ca^2+ through the channel is quantified with the aid of a Ca^2+-sensitive dye (type Fluo-4, Molecular Probes Europe BV, Leiden, the Netherlands) in a fluorescent imaging plate reader (FLIPR, Molecular Devices, Sunnyvale, USA). Chinese hamster ovary cells (CHO K1 cells, European Collection of Cell Cultures (ECACC) United Kingdom) are stably transfected with the VR1 gene. For functional testing, these cells are plated out on poly-D-lysine-coated black 96-well plates having a clear base (BD Biosciences, Heidelberg, Germany) at a density of 25,000 cells/well. […] Subsequently, the plates are washed three times with HBSS buffer and after further incubation for 15 minutes at RT used for Ca^2+ measurement in a FLIPR assay. […] Quantification is carried out by measuring the highest fluorescence intensity (FC, fluorescence counts) over time. The FLIPR protocol consists of 2 substance additions. […] Desensitising agonists and antagonists led to suppression of the Ca^2+ influx. […] Ki values for the test substances were obtained by conversion by means of the Cheng-Prusoff equation (Cheng, Prusoff; Biochem. Pharmacol. 22, 3099-3108, 1973).
As for `CC(C(=O)NCc1cc(C(C)(C)C)nn1-c1cccc(Cl)c1)c1ccc(N2CCCS2(=O)=O)c(F)c1` (stereo not shown) [Example 55, N-((3-tert-butyl-1-(3-chlorophenyl)-1H-pyrazol-5-yl)methyl)-2-[4-(1,1-dioxidoisothiazolidin-2-yl)-3-fluorophenyl]propanamide], the “IC50 (human being) hVR1 pH: result in words (NE / AG)” value was “NE”.

The same test, now with this note: read-out: IC50 (human being) hVR1 pH: inhibition (as a percentage) @ 10 μM, inhibition determined at 10 μM.
For `Cc1ccc(-n2nc(C(C)(C)C)cc2CNC(=O)C(C)c2ccc(NS(C)(=O)=O)c(F)c2)cc1` (stereo not shown) [Example 12, N-((3-tert-butyl-1-p-tolyl-1H-pyrazol-5-yl)methyl)-2-(3-fluoro-4-(methylsulphonamido)phenyl)propanamide], the inhibition (in general, the drop in the measured response relative to a control, in per cent) at 10 µM was determined as 40%.

For `C[C@H](C(=O)NCc1cc(C(C)(C)C)nn1-c1cccc(Cl)c1)c1ccc(NS(C)(=O)=O)c(F)c1` [Example 17, (S)-N-((3-tert-butyl-1-(3-chlorophenyl)-1H-pyrazol-5-yl)methyl)-2-(3-fluoro-4-(methylsulphonamido)phenyl)propanamide], the inhibition at 10 µM was 37%.

A further test addresses T1, hVR1. As to the kind of experiment: FLIPR Ca2+ influx assay on CHO K1 cells transfected with the VR1 gene, capsaicin stimulus (method II). In kind it is cell-based. Also noted: key to Ki (human being) Cap: result in words (NE / AG): AG=agonist; pAG=partial agonist; NE=no effect. The conditions noted are these: CHO-K1, read-out: Ki (human being) Cap column: inhibition (as a percentage) @ 5 μM, capsaicin, inhibition determined at 5 μM. The text has this:
In the process, the Ca^2+ influx is quantified in the FLIPR assay with the aid of a Ca^2+-sensitive dye (type Fluo-4, Molecular Probes Europe BV, Leiden, the Netherlands) in a fluorescent imaging plate reader (FLIPR, Molecular Devices, Sunnyvale, USA), as described hereinafter.
The agonistic or antagonistic effect of the substances to be tested on the vanilloid receptor 1 (VR1) can also be determined using the following assay. In this assay, the influx of Ca^2+ through the channel is quantified with the aid of a Ca^2+-sensitive dye (type Fluo-4, Molecular Probes Europe BV, Leiden, the Netherlands) in a fluorescent imaging plate reader (FLIPR, Molecular Devices, Sunnyvale, USA).
Chinese hamster ovary cells (CHO K1 cells, European Collection of Cell Cultures (ECACC) United Kingdom) are stably transfected with the VR1 gene. For functional testing, these cells are plated out on poly-D-lysine-coated black 96-well plates having a clear base (BD Biosciences, Heidelberg, Germany) at a density of 25,000 cells/well. The cells are incubated overnight at 37° C. and 5% CO2 in a culture medium (Ham's F12 nutrient mixture, 10% by volume of FCS (foetal calf serum), 18 μg/ml of L-proline). The next day the cells are incubated with Fluo-4 (Fluo-4 2 μM, 0.01% by volume of Pluronic F127, Molecular Probes in HBSS (Hank's buffered saline solution), Gibco Invitrogen GmbH, Karlsruhe, Germany) for 30 minutes at 37° C. Subsequently, the plates are washed three times with HBSS buffer and after further incubation for 15 minutes at RT used for Ca^2+ measurement in a FLIPR assay. The Ca^2+-dependent fluorescence is measured before and after the addition of the substances to be tested (λex wavelength=488 nm, λem=540 nm). Quantification is carried out by measuring the highest fluorescence intensity (FC, fluorescence counts) over time.
The FLIPR protocol consists of 2 substance additions. First the compounds to be tested (10 μM) are pipetted onto the cells and the Ca^2+ influx is compared with the control (capsaicin 10 μM) (% activation based on the Ca^2+ signal after the addition of 10 μM of capsaicin). After 5 minutes' incubation, 100 nM of capsaicin are applied and the Ca^2+ influx is also determined.
Desensitising agonists and antagonists led to suppression of the Ca^2+ influx.
Starting from the percentage displacement caused by different concentrations of the compounds to be tested of general formula I, IC50 inhibitory concentrations which cause a 50-percent displacement of capsaicin were calculated. Ki values for the test substances were obtained by conversion by means of the Cheng-Prusoff equation (Cheng, Prusoff; Biochem. Pharmacol. 22, 3099-3108, 1973).
As to `CC(C)(C)c1cc(CNC(=O)Cc2cccc(F)c2)n(NCC(F)(F)F)n1` [Example 133, N-((3-tert-butyl-1-(2,2,2-trifluoroethylamino)-1H-pyrazol-5-yl)methyl)-2-(3-fluorophenyl)acetamide], the inhibition at 5 µM stood at 12%.

Take `CCCCCn1nc(C(F)(F)F)cc1CNC(=O)Cc1cccc(F)c1` [Example 131, 2-(3-fluorophenyl)-N-((1-pentyl-3-(trifluoromethyl)-1H-pyrazol-5-yl)methyl)acetamide]: the inhibition at 5 µM worked out at 58%.

Still in this test, the particulars now being: CHO-K1, read-out: Ki (human being) inhibition (as a percentage) @ 1 μM, capsaicin, inhibition determined at 1 μM.
Take `CC(C(=O)NCc1cc(C(F)(F)F)nn1-c1cccc(Cl)c1)c1ccc(C(=O)Nc2ccccc2)cc1` (stereo not shown) [Example 143, 4-(1-((1-(3-chlorophenyl)-3-(trifluoromethyl)-1H-pyrazol-5-yl)methylamino)-1-oxopropan-2-yl)-N-phenylbenzamide]: the inhibition at 1 µM was determined as 56%.

Staying with this test, now noted: capsaicin.
With `COCCOCc1ccc(C(C)C(=O)NCc2cc(C(C)(C)C)nn2-c2cccc(Cl)c2)cc1F` (stereo not shown) [Example 142, N-((3-tert-butyl-1-(3-chlorophenyl)-1H-pyrazol-5-yl)methyl)-2-(3-fluoro-4-((2-methoxyethoxy)methyl)phenyl)propanamide], the “Ki (human being) Cap: result in words (NE / AG)” value (shortened to “Ki (human being) Cap … (NE / AG)”) is given as “AG”.

As for `CC(C)(C)c1cc(CNC(=O)Nc2ccc(N3CCOCC3)c(F)c2)n(-c2cccc(Cl)c2)n1` [Example 144, 1-((3-tert-butyl-1-(3-chlorophenyl)-1H-pyrazol-5-yl)methyl)-3-(3-fluoro-4-morpholinphenyl)urea], the “Ki (human being) Cap … (NE / AG)” value is reported as “AG”.

For `CC(C(=O)NCc1cc(C(C)(C)C)nn1-c1cccc(Cl)c1)c1ccc(C2CC2)c(F)c1` (stereo not shown) [Example 125, N-((3-tert-butyl-1-(3-chlorophenyl)-1H-pyrazol-5-yl)methyl)-2-(4-cyclopropyl-3-fluorophenyl)propanamide], the “Ki (human being) Cap … (NE / AG)” value is “AG”.

On to `COc1c(F)cc(NC(=O)NCc2cc(C(C)(C)C)nn2-c2cccc(Cl)c2)cc1F` [Example 61, 1-((3-tert-butyl-1-(3-chlorophenyl)-1H-pyrazol-5-yl)methyl)-3-(3,5-difluoro-4-methoxyphenyl)urea], for which the “Ki (human being) Cap … (NE / AG)” value was “AG”.

Consider `O=C(NCc1cc(C(F)(F)F)nn1-c1cccc(Cl)c1)Nc1ccc(C#CC2CC2)c(F)c1` [Example 139, 1-((1-(3-chlorophenyl)-3-(trifluoromethyl)-1H-pyrazol-5-yl)methyl)-3-(4-(cyclopropylethynyl)-3-fluorophenyl)urea], for which the “Ki (human being) Cap … (NE / AG)” value is given as “AG”.

As for `CC(C)(C)c1cc(CNC(=O)Nc2cccc(F)c2)n(-c2ccc(F)cc2)n1` [Example 122, 1-((3-tert-butyl-1-(4-fluorophenyl)-1H-pyrazol-5-yl)methyl)-3-(3-fluorophenyl)urea], the “Ki (human being) Cap … (NE / AG)” value is recorded as “AG”.

As for `CC(C)(C)c1cc(CNC(=O)Cc2cccc(F)c2)n(-c2cccc(Cl)c2)n1` [Example 73, N-((3-tert-butyl-1-(3-chlorophenyl)-1H-pyrazol-5-yl)methyl)-2-(3-fluorophenyl)acetamide], the “Ki (human being) Cap … (NE / AG)” value is recorded as “AG”.

Staying with this test, now noted: capsaicin (Cap), read-out: Ki (human being) [nM] Cap.
For `CC(C(=O)NCc1cc(C(C)(C)C)nn1-c1ccccn1)c1ccc(CNS(C)(=O)=O)c(F)c1` (stereo not shown) [Example 127, N-((3-tert-butyl-1-(pyridin-2-yl)-1H-pyrazol-5-yl)methyl)-2-(3-fluoro-4-(methylsulfonamidmethyl)phenyl)propanamide], the Ki (as a rule, a dissociation constant, usually derived from enzyme kinetics or from competition with a known ligand) was 58.1 nM.

In the case of `O=C(NCc1cc(C(F)(F)F)nn1-c1cccc(Cl)c1)Nc1ccc(C2CC2)c(F)c1` [Example 126, 1-((1-(3-chlorophenyl)-3-(trifluoromethyl)-1H-pyrazol-5-yl)methyl)-3-(4-cyclopropyl-3-fluorophenyl)urea], the Ki was found to be 31.4 nM.

Take `CC(C(=O)NCc1cc(C(C)(C)C)nn1-c1cccc(Cl)c1)c1ccc(N2CCCS2(=O)=O)c(F)c1` (stereo not shown) [Example 55, N-((3-tert-butyl-1-(3-chlorophenyl)-1H-pyrazol-5-yl)methyl)-2-[4-(1,1-dioxidoisothiazolidin-2-yl)-3-fluorophenyl]propanamide]: the Ki is 114 nM.

With `CC(C)(C(=O)NCc1cc(C(F)(F)F)nn1-c1cccc(Cl)c1)c1cccc(F)c1` [Example 117, N-((1-(3-chlorophenyl)-3-(trifluoromethyl)-1H-pyrazol-5-yl)methyl)-2-(3-fluorophenyl)-2-methylpropanamide], the inhibition constant Ki stood at 56 nM.

Regarding `Cc1c(C(F)(F)F)nn(-c2cccc(Cl)c2)c1CNC(=O)C(C)c1ccc(CNS(C)(=O)=O)c(F)c1` (stereo not shown) [Example 134, N-((1-(3-chlorophenyl)-4-methyl-3-(trifluoromethyl)-1H-pyrazol-5-yl)methyl)-2-(3-fluoro-4-(methylsulfonamidmethyl)phenyl)propanamide], the inhibition constant (Ki) stood at 2.5 nM.

With `Cc1c(C(F)(F)F)nn(-c2cccc(Cl)c2)c1CNC(=O)Cc1cccc(F)c1` [Example 130, N-((1-(3-chlorophenyl)-4-methyl-3-(trifluoromethyl)-1H-pyrazol-5-yl)methyl)-2-(3-fluorophenyl)acetamide], the inhibitory constant (Ki) amounted to 112 nM.

Regarding `CC(C(=O)NCc1cc(C(F)(F)F)nn1-c1cccc(Cl)c1)c1ccc(C(=O)Nc2ccccc2)c(F)c1` (stereo not shown) [Example 39, 4-(1-((1-(3-chlorophenyl)-3-(trifluoromethyl)-1H-pyrazol-5-yl)methylamino)-1-oxopropan-2-yl)-2-fluoro-N-phenylbenzamide], the Ki is 7.2 nM.

For the compound `CC(C(=O)NCc1cc(C(F)(F)F)nn1C1CCCCC1)c1ccc(CNS(C)(=O)=O)c(F)c1` (stereo not shown) [Example 137, N-((1-cyclohexyl-3-(trifluoromethyl)-1H-pyrazol-5-yl)methyl)-2-(3-fluoro-4-(methylsulfonamidmethyl)phenyl)propanamide], the inhibition constant (Ki) is 65.1 nM.

On to `O=C(NCc1cc(C(F)(F)F)nn1-c1cccc(Cl)c1)C1(c2cccc(F)c2)CCC1` [Example 119, N-((1-(3-chlorophenyl)-3-(trifluoromethyl)-1H-pyrazol-5-yl)methyl)-1-(3-fluorophenyl)cyclobutancarboxamide], for which the Ki was 107 nM.

The values are drawn from US9120756B2, “Substituted phenylureas and phenylamides as vanilloid receptor ligands” (Gruenenthal GmbH, priority 2009, dated 2015).
